Data published in patent US5114919A, “Adjuncts in cancer chemotherapy” (Merck & Co., Inc., priority 1991, dated 1992).

What was measured:
[1] = system: KB-3 drug-sensitive cell line; assay: [3H]vinblastine accumulation assay in KB-3 drug-sensitive cells; assay type: cell-based, human; conditions: 37° C., serum-free DMEM; for Accumulation of [3H]vinblastine, KB-3: Table 1, compound 20 μM, 30 minutes; for Accumulation of [3H]vinblastine, KB-3, drug preincubated (60 min): Table 2, drug preincubated 60 min, compound 20 μM
Description: (§1) Radiolabelled compounds may also be utilized to determine the accumulation of antitumor chemotherapeutic agents in drug sensitive cells and in multidrug resistant cells. For example, the accumulation of [^3 H]vinblastine by drug sensitive cell lines and drug resistant cell lines in the presence or absence of a test compound may be determined. The relative accumulation of the radiolabelled chemotherapeutic agent is indicative of the ability of a compound to reverse multidrug resistance.
(§2) Drug Accumulation: Measurement of the accumulation of [^3 H] vinblastine in a KB-3 drug-sensitive cell line and a KB-V-1 drug-resistantcell line was performed at 37° C. in serum-free medium (DMEM). Cell monolayers were grown in 24 well dishes. [^3 H] vinblastine and different compounds (20 μM) were added to cells incubated for 30 minutes, monolayers were washed later, and drug accumulation per mg protein was assayed.

[2] = system: KB-V-1 drug-resistant cell line; assay: [3H]vinblastine accumulation assay in KB-V-1 drug-resistant cells; assay type: cell-based, human; conditions: for Accumulation of [3H]vinblastine, KB-V-1, drug preincubated (60 min): Table 2
Description: as §1, §2

[3] = Table 1, compound 20 μM, 30 minutes, 37° C., serum-free DMEM, drug-resistant cells
[4] = compound 20 μM, 37° C., serum-free DMEM, drug-resistant cells

Row | Structure (SMILES) | Accumulation of [3H]vinblastine, KB-3 [1] [pmole/mg protein] | Accumulation of [3H]vinblastine, KB-3, drug preincubated (60 min) [1] [pmole/mg protein] | Accumulation of [3H]vinblastine, KB-V-1 [2, 3] [pmole/mg protein] | Accumulation of [3H]vinblastine, KB-V-1, drug preincubated (60 min) [2, 4] [pmole/mg protein] | Accumulation of [3H]vinblastine, KB-V-1 ([2]; 20 µM) [pmole/mg protein]
1 | COc1ccc(CCN(C)CCCC(C#N)(c2ccc(OC)c(OC)c2)C(C)C)cc1OC (stereo not drawn) [Verapamil, reference compound] | 4.65 ± 0.13 | 4.71 ± 0.25 | 2.21 ± 0.18 | 2.36 ± 0.21 | –
2 | FC(F)(F)Sc1ccc2c(c1)C(=C1CCN(CC3CC3)CC1)c1ccccc1C=C2 [(-)-1-cyclopropylmethyl-4-(3-trifluoromethylthio-5H-dibenzo[a,d]cyclohepten-5-ylidene)piperidine] | 11.65 ± 0.11 | 10.16 ± 0.41 | 0.91 ± 0.04 | 1.85 ± 0.11 | –
3 | COc1cc(C(=O)NCc2ccc3c(c2)C(=C2CCN(C)CC2)c2ccccc2C=C3)cc(OC)c1OC [3,4,5-Trimethoxy-N-((5-(1-methyl-4-piperidinylidene)-5H-dibenzo[a,d]cyclohepten-3-yl)methyl)benzamide] | 8.15 ± 0.44 | 3.67 ± 0.32 | – | 3.57 ± 0.16 | 3.31 ± 0.25
4 | COc1cc(N)c(Cl)cc1C(=O)NCc1ccc2c(c1)C(=C1CCN(C)CC1)c1ccccc1C=C2 [4-Amino-5-chloro-2-methoxy-N-((5-(1-methyl-4-piperidinylidene)-5H-dibenzo[a,d]cyclohepten-3-yl)methyl)benzamide] | 3.47 ± 0.15 | – | 3.47 ± 0.26 | – | –
5 | CCOC(=O)C1=C(C)NC(C)=C(C(=O)OCC)C1c1ccc2c(c1)C(=C1CCN(C)CC1)c1ccccc1C=C2 [Diethyl 1,4-dihydro-2,6-dimethyl-4-(5-(1-methyl-4-piperidinylidene)-5H-dibenzo[a,d]cyclohepten-3-yl)pyridine dicarboxylate] | 3.32 ± 0.09 | – | 2.13 ± 0.15 | – | –
6 | Ic1ccc2c(c1)C(=C1CCN(CC3CC3)CC1)c1ccccc1C=C2 [(+)-1-cyclopropylmethyl-4-(3-iodo-5H-dibenzo[a,d]cyclohepten-5-ylidene)piperidine] | 7.35 ± 0.18 | – | 2.91 ± 0.25 | – | –
